Test results: patent US20140106342A1, “METHOD OF ASSAYING DNA TOPOISOMERASES AND DNA BINDING PROTEINS USING HIGH THROUGHPUT SCREENING” (priority 2011, published 2014)
Changes are numbered by the printed parent chain. Read-outs that look alike come from different tables or passages of the source. *1 amine or outer side, *2 acyl side, *3 side chain or, on linkers, in order; H or OH if unused. Where a SMILES comes first, the peptide text is derived from it. Bridges are numbered along the chain shown (N, C = ends). Roman numbers before positions name the chains, in order. [ ]: non-standard residue; d: D form. Actinocin(9to1) = Cc1c2oc3c(C)ccc(C(=O)[*:1])c3nc-2c(C(=O)[*:2])c(N)c1=O; NMeV = CN[C@H](C(=O)O)C(C)C; Sar = CNCC(=O)O

Assays:
human Topo I [1] = biological target: T1, human Topo I (Homo sapiens, UniProt P11387); assay: Solid phase topo I HTS assay (His-tag topo I on nickel coated plates, pHOT1 DNA retention by Picogreen fluorescence); format: biochemical; design: The intact human topo I gene was cloned as a His-tag gene; purchased TopoGEN, Inc. (Port Orange, Fla.); host or cells: baculovirus-infected Spodoptera frugiperda Sf9 cells; settings: for fold increase in DNA binding to wells due to CPT: 96 well
T1 sequence (P11387 1-765): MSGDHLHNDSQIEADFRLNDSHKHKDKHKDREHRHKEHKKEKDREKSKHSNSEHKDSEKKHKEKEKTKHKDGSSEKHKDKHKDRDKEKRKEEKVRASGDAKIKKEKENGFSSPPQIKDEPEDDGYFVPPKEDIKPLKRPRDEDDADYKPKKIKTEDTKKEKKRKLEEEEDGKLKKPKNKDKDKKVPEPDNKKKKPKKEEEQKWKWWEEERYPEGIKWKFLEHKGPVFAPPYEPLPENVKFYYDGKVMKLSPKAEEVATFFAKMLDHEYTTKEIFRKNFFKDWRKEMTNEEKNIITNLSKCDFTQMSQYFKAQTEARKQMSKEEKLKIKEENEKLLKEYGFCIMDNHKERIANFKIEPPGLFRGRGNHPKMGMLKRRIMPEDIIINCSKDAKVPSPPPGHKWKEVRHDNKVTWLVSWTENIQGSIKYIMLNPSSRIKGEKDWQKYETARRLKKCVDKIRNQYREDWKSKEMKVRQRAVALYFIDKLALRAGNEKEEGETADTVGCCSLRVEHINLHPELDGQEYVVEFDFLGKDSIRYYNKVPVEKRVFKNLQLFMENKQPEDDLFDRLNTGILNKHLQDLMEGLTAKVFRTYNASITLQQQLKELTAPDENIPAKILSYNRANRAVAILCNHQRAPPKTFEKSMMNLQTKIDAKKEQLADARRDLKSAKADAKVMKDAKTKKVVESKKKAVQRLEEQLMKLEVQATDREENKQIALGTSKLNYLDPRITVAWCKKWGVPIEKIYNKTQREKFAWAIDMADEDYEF
Protocol: FIG. 8 is a flowchart depicting the model for solid phase Topo I screening. […] Free enzyme is washed out and pHOT1 supercoiled DNA is added in a topo I assay buffer. […] Free DNA is then washed out and the relative fluorescence is measured using Picogreen staining. […] The results are expressed as an “HTS Ratio” corresponding to the RFU of experimental to RFU of negative controls (no CPT).
The unbound enzyme was removed by aspirating off the initial binding solution followed by three washes (about 200 uL each) with cold PBS containing about 0.05% Tween-20 (PBS-T). […] Drugs were dissolved in DMSO and the final DMSO concentration in the reaction never exceeded about 1%. Reactions were incubated for about 1 hr at about 37° C. and terminated by the addition of about 0.1 vol of about 1% SDS (vol:vol) followed by a about 5 min incubation at about 37° C. The reaction mixture was next aspirated and washed three times with about 200 uL PBS-T. Picogreen (about 100 ug/mL) was diluted in TE (about 1:400) and about 200 µl was added to each well followed by incubation in the dark for about 5 min. The relative fluorescence was measured at about 485 nm excitation and about 525 nm emission wavelength using a Tecan reader.
In step 5, the readout (relative fluorescent units or RFU retained in the wells) is analyzed based on what is referred to as the ‘HTS Ratio’ (RFU Experimental/RFU in negative control).
Free enzyme is washed out and pHOT1 supercoiled DNA is added in a topo I assay buffer. […] Free DNA is then washed out and the relative fluorescence is measured using Picogreen staining. […] The results are expressed as an “HTS Ratio” corresponding to the RFU of experimental to RFU of negative controls (no CPT).

pHOT1 DNA = assay: Nicking of pHOT1 DNA in the absence of topo I
Protocol: . This may explain why some bifunctional alkylators are picked up by the assay. […]. Thus, about 5 compounds out of about 50 scored as potential topo I IFP at about 100 uM input of purified test drug (single asterisk, FIG. 10). A relatively high input of test drug concentrations to amplify false positives was; however, in a typical HTS experiment the concentrations would be much lower and would detect far fewer false leads. […].

Y723F topo I mutant = biological target: T2, Y723F topo I mutant (Homo sapiens, UniProt P11387, Y723F); assay: Solid phase assay with catalytically inactive Y723F topo I mutant; format: biochemical; settings: highest input of protein
T2 construct: purchased TopoGEN, Inc. (Port Orange, Fla.); host or cells: baculovirus expression (Sf9)
T2 sequence (P11387 1-765 Y723F): T1 sequence (P11387 1-765) with Y723F
Protocol: The unbound enzyme was removed by aspirating off the initial binding solution followed by three washes (about 200 uL each) with cold PBS containing about 0.05% Tween-20 (PBS-T). […] Drugs were dissolved in DMSO and the final DMSO concentration in the reaction never exceeded about 1%. Reactions were incubated for about 1 hr at about 37° C. and terminated by the addition of about 0.1 vol of about 1% SDS (vol:vol) followed by a about 5 min incubation at about 37° C.

human Topo I [2] = biological target: T1, human Topo I; assay: Topo I cleavage complex formation / liquid reactions analysed on agarose-ethidium bromide gel
[3] = test drug about 100 uM, about 1.0 = minus CPT control, solid phase

O=C(c1ccc(OCCN2CCCCC2)cc1)c1c(-c2ccc(O)cc2)sc2cc(O)ccc12 [Raloxifene]
HTS Ratio (RFU experimental / RFU negative control, no CPT) (human Topo I [1]; test drug about 100 uM, about 1.0 = minus CPT control, solid phase, listed as Reloxifene): about 2.0

Cc1c2oc3c(C)ccc(C(=O)N[C@@H]4C(=O)N[C@H](C(C)C)C(=O)N5CCC[C@H]5C(=O)N(C)CC(=O)N(C)[C@@H](C(C)C)C(=O)O[C@@H]4C)c3nc-2c(C(=O)N[C@@H]2C(=O)N[C@H](C(C)C)C(=O)N3CCC[C@H]3C(=O)N(C)CC(=O)N(C)[C@@H](C(C)C)C(=O)O[C@@H]2C)c(N)c1=O [Dactinomycin] (I: T[dV]P[Sar][NMeV] / II: T[dV]P[Sar][NMeV]; ester I:1-I:C, II:1-II:C; linker I:N-II:N via Actinocin(9to1))
HTS Ratio (RFU experimental / RFU negative control, no CPT) (human Topo I [1]; [3]): about 1.4

CCc1c2c(nc3ccc(OC(=O)N4CCC(N5CCCCC5)CC4)cc13)-c1cc3c(c(=O)n1C2)COC(=O)[C@]3(O)CC [Irinotecan]
HTS Ratio (RFU experimental / RFU negative control, no CPT) (human Topo I [1]; [3]): about 1.4

Oc1ncc(N(CCCl)CCCl)c(O)n1 [Uracil mustard]
HTS Ratio (RFU experimental / RFU negative control, no CPT) (human Topo I [1]): about 1.1
single strand DNA nicks in pHOT1 DNA (pHOT1 DNA): induce single strand DNA nicks

N[C@@H](Cc1ccc(N(CCCl)CCCl)cc1)C(=O)O [Melphalan]
HTS Ratio (RFU experimental / RFU negative control, no CPT) (human Topo I [1]; [3]): 1.2-1.3

CC[C@@]1(O)C(=O)OCc2c1cc1n(c2=O)Cc2cc3ccccc3nc2-1 [CPT, Camptothecin]
magnitude of the increase in +CPT controls (human Topo I [1]; 96 well format (comparison)): about 2.6 fold
magnitude of the increase in +CPT controls (human Topo I [1]; 384 well format): about 1.7 fold
fraction of well-bound DNA that is nicked form II (human Topo I [1]; CPT reactions, about 512 units topo I, about 5 uM CPT, no-CPT about 20%): about 70%
fraction of well-bound DNA that is relaxed (Ir) (human Topo I [1]; CPT reactions, about 512 units topo I, about 5 uM CPT, no-CPT about 80%): about 30%
drug concentration dependency of solid phase readout (human Topo I [1]; CPT titration, about 512 units topo I, about 100 ng DNA): did not display drug concentration dependency
magnitude of the increase in form II DNA in +CPT wells over no drug controls (human Topo I [1]; DNA recovered from wells, gel analysis): 2-3 fold
fold increase in DNA binding to wells due to CPT (human Topo I [1]; about 16-64 units topo I, about 5 uM CPT): 1.2-2 fold
fold increase in DNA binding to wells due to CPT (human Topo I [1]; about >100 units topo I, about 5 uM CPT): 2.5-2.7 fold
mean relative fluorescence, +CPT (human Topo I [1]; high topo I inputs (about 1024, about 512 units), SD +/- about 153, -CPT mean about 1181): about 2877
time course of CPT induced complexes (human Topo I [1]; solid phase): continue to accumulate over several hours
relative fluorescence (RFU) of a typical reaction, + control (human Topo I [1]; typical reaction, - control about 2000): about 4000 fluorescent units
CPT stimulation of DNA binding with mutant protein (Y723F topo I mutant): did not display any CPT stimulation
time for CPT induced complexes to reach a maximal stoichiometric value (human Topo I [2]; in solution): within a few minutes

CNNCc1ccc(C(=O)NC(C)C)cc1 [Procarbazine]
HTS Ratio (RFU experimental / RFU negative control, no CPT) (human Topo I [1]; [3]): about 1.65

CC/C(=C(\c1ccccc1)c1ccc(OCCN(C)C)cc1)c1ccccc1 [Tamoxifen]
induction of topo I cleavages (human Topo I [2]; data not shown, less than with CPT): induced topo I cleavages

O=C1c2c(O)ccc(O)c2C(=O)c2c(NCCNCCO)ccc(NCCNCCO)c21 [mitoxantrone]
effect on DNA binding to bound topo I (human Topo I [1]; solid phase HTS): strongly reduce DNA binding
